For experiment [1], the system named is human epidermal PLA2. Description: inhibition of human epidermal PLA2 activity by fatty acids (1-palmitoyl 2-1-^14 C. palmitoyl phosphatidyl choline substrate). The experiment is classed as biochemical. The note with it: for IC50: purified human epidermal enzyme, standard assay with 1-palmitoyl 2-1-^14 C. palmitoyl phosphatidyl choline; for ability to inhibit PLA2, ranking among fatty acids tested: PLA2 isolated from human skin, stated for both test systems. How it is done:
(§1) In the experimental work on which the above discussion is based, epidermal PLA2 was prepared from isolated mouse or human epidermal cells by detergent solubilisation, ion exchange chromatography and gel filtration. Both enzymes had molecular weights in the region of 68,000, a pH optimum around 9.0 and an absolute requirement for calcium ions. Phospholipids were prepared as both unilamellar vesicles and detergent micelles. PLA2 activity was readily detected using these substrates, with no apparent preference for polar head group. For the standard assay, 1-palmitoyl 2-1-^14 C. palmitoyl phosphatidyl choline was used. The reaction was initiated by the addition of purified enzyme and terminated by the addition of chloroform/methanol/acetic acid (3:4:1). The free fatty acid was extracted, separated by thin layer chromatography and quantified by scintillation counting. Ranges of concentrations of various fatty acids were added to the reaction mixture to assess their ability to inhibit PLA2. Dose response curves were constructed and the IC50 value (the concentration of fatty acid required to inhibit enzyme activity by 50%) was estimated. Similar experiments were performed using macrophages isolated from rat peritoneal cavity by lavage.

Experiment [2] concerns rat macrophage PLA2. Description: inhibition of rat macrophage PLA2 activity by fatty acids. The experiment is classed as biochemical. The note with it: for IC50: macrophages isolated from rat peritoneal cavity by lavage; for ability to inhibit PLA2, ranking among fatty acids tested: PLA2 from rat macrophages, stated for both test systems. On the procedure:
as §1

In the case of `CCCCCCCC/C=C\CCCCCCCCCC(=O)O` [20:1 cis 11-eicosenoic, cis 11-eicosenoic], the IC50 in experiment [1] and in experiment [2] was greater than 100 µM each time.
As to `CCCCC/C=C\C/C=C\C/C=C\C/C=C\CCCC(=O)O` [20:4 cis 5,8,11,14-eicosatetraenoic (AA), cis 5,8,11,14-eicosatetraenoic], in experiment [1], the “ability to inhibit PLA2, ranking among fatty acids tested” value (“ability to inhibit PLA2” for short) was “closest to SA in its ability to inhibit PLA2” and 45 ± 8 µM corresponded to half-maximal inhibition (IC50). For the same compound, in experiment [2], the “ability to inhibit PLA2” value is listed as “closest to SA in its ability to inhibit PLA2” and the IC50 is 65 ± 8 µM.
Compound `CCCCC/C=C\C/C=C\C/C=C\CCCCC(=O)O` [cis 6,9,12-octadecatrienoic] displayed an IC50 in experiment [1] of 52 ± 3 µM.
With `CC/C=C\C/C=C\C/C=C\C/C=C\CCCCC(=O)O` [delta-6,9,12,15-octadecatetraenoic acid], the “ability to inhibit PLA2” value in experiment [1] and in experiment [2] was “the most potent of all the fatty acids tested” throughout. Further, the IC50 came out at 37 ± 3 µM in experiment [1] and 52 ± 8 µM in experiment [2].
As to `CCCCCCCCCCC/C=C\CCCCC(=O)O` [18:1 cis 6-octadecenoic, cis 6-octadecenoic], the IC50 in experiment [1] and in experiment [2] was greater than 100 µM in each case.
In experiment [1], `CCCCC/C=C\C/C=C\CCCCCCCCCC(=O)O` [20:2 cis 11,14-eicosadienoic, cis 11,14-eicosadienoic] registered an IC50 of 87 ± 6 µM.
On the same count and under the same terms, the figure for `CCCCC/C=C\C/C=C\CCCCCCCC(=O)O` [18:2 cis 9,12-octadecadienoic (linoleic), delta-9,12-octadecadienoic acid] is 85 ± 5 µM.
In the case of `CCCCC/C=C\C/C=C\C/C=C\CCCCCCC(=O)O` [cis 8,11,14-eicosatrienoic], the values for the IC50 in experiment [1] and in experiment [2] were 61 ± 5 µM and 71 ± 11 µM, respectively.
The corresponding values for `CC/C=C\C/C=C\C/C=C\CCCCCCCC(=O)O` [cis 9,12,15-octadecatrienoic] are 45 ± 6 µM and 75 ± 9 µM.
Turning to `CC/C=C\C/C=C\C/C=C\C/C=C\C/C=C\CCCC(=O)O` [cis 5,8,11,14,17-eicosapentaenoic], in experiment [1], half-maximal inhibition (IC50) was put at 58 ± 4 µM.

The values are drawn from patent US5178873A, “Essential fatty acid treatment” (Efamol Holdings PLC, priority 1990, dated 1993).
